According to US20160022556A1, “1,5-ANHYDRO-D-GLUCITOL-CONTAINING COLLAGEN PRODUCTION ACCELERATOR” (NATIONAL UNIVERSITY CORPORATION UNIVERSITY OF TOYOMA, priority 2013, published 2016):

Columns and labels:
normal human fibroblasts = assay: Type I collagen synthesis of normal human fibroblasts (ELISA of culture supernatant; protein by BCA method); format: cell-based; conditions: for Type I Collagen, Mean S.D.: 24-hour culture, n = 6, untreated control 7.03 ± 0.25
Experimental: The action of 1,5-AG on the synthesis of type I collagen of dermal fibroblasts is evaluated. Specifically, normal human fibroblasts were spread on a 96-well microplate using Dulbecco's modified eagle medium (DMEM) containing 0.5% fetal bovine serum (FBS). The fibroblasts were cultured at 37° C. for 24 hours, and thereafter the medium was exchanged with a 0.5% FBS-containing DMEM containing a given concentration of samples. As a positive control (P.C.), the same treatment was carried out with magnesium ascorbyl phosphate. After the 24-hour culture in the sample-containing medium, the culture supernatant was collected and subjected to ELISA. Also, the amount of protein was measured in accordance with bicinchoninic acid (BCA) method with PIERCE (manufactured by Pierce Biotechnology Inc.).
The culture supernatant and the collagen solutions for calibration curve were each dispensed in each well of high-adsorbent ELISA plate, and allowed to coat at 4° C. over one day and night. Thereafter, the coated plate was blocked at 37° C. for 1 hour with a 1% bovine serum albumin (BSA) solution. The primary antibody reaction was carried out by diluting Anti-Human Collagen Type I antibody (manufactured by Bio-Rad Laboratories, Inc., Rabbit) with a 0.3% BSA solution, and the dilution was added to each well and allowed to react at 37° C. for 1 hour. The secondary antibody reaction was carried out by diluting Histofine MAX-PO® (manufactured by NICHIREI, Rabbit) with a phosphate buffer, and the dilution was added to each well, and allowed to react at 37° C. for 1 hour. Next, 0.3 mg/mL of phosphate-citrate buffer (0.1 M, pH 4.0) containing 2,2′-azinobis(3-ethylbenzothiazoline-6-sulfonic acid)diammonium salt (ABTS) and a 0.03% hydrogen peroxide was added to each well and allowed to react for 20 minutes, and the absorbance of the reaction mixture was measured at 405 nm with a microplate reader.
The amount of the collagen in the culture supernatant was calculated from the calibration curve prepared from commercially available collagen. By dividing the amount of collagen in the medium by the amount of proteins in all the cells, the amount of collagen synthesized per unit protein amount was calculated. The amount of collagen synthesized at each concentration was subjected to a significance test using a Student-t test, and a difference with an untreated control was evaluated.

skin surface of human = assay: Moisturizing effect: water content of skin surface in short-term use test of human volunteers (SKICON200); format: in vivo; conditions: for Water Content of Skin Surface, Mean (%) SD, relative value where the initial value was defined as 100%: 2.5 μL/cm^2, medial part of forearm, n = 4
Experimental: The moisturizing effects of the 1,5-AG are evaluated by a short-term use test of human volunteers. Specifically, with 5 males of ages of 26 to 34 as test individuals, an aqueous solution of a sample listed in Table 2 in a given concentration was applied in an amount of 2.5 μL/cm^2 at a medial part of forearm, and the water content of the skin surface was measured in accordance with the following method.
<Measurement of Water Content of Skin Surface>
Each test individual washed his medial part of forearm with a given detergent, and was conditioned for 15 minutes in a thermohygrostat (room temperature: 22° C., humidity: 45%). Thereafter, an initial value of the water content of the skin surface was measured with SKICON200 (manufactured by I.B.S. Co., Ltd., corneometer). Next, each of the test samples and purified water were coated according to a coating method. Further, uncoated sites were set. Water contents were measured immediately after the sample coating, after 15 minutes, after 30 minutes, and after 45 minutes. The water content of the uncoated sites was measured matching the measurement time at the sample-coated sites. The change in the water contents of each site to be tested was expressed in a relative value where an initial value was defined as 100%. The difference in the water content of skin surface in each test individual before and after the use of test samples was subjected to a significance test according to a Student-t test. The data for test individuals of which water contents of skin surface of the uncoated sites increased with passage of time were discarded as abnormal values, and the results calculated using the measurement values of four individuals are shown in Table 2 and FIG. 2.

Molecule	Type I Collagen, Mean S.D. (normal human fibroblasts; 313 μg/mL sample) [ng/μg protein]	Type I Collagen, Mean S.D. (normal human fibroblasts; 625 μg/mL sample) [ng/μg protein]	Type I Collagen, Mean S.D. (normal human fibroblasts; 1250 μg/mL sample) [ng/μg protein]	amount of type I collagen synthesized in the normal human fibroblasts (normal human fibroblasts; versus untreated control, Student-t test)	Water Content of Skin Surface, Mean (%) SD, relative value where the initial value was defined as 100% (skin surface of human; 2% aqueous solution, After 15 min) [%]	Water Content of Skin Surface, Mean (%) SD, relative value where the initial value was defined as 100% (skin surface of human; 2% aqueous solution, After 30 min) [%]	Water Content of Skin Surface, Mean (%) SD, relative value where the initial value was defined as 100% (skin surface of human; 2% aqueous solution, After 45 min) [%]	Water Content of Skin Surface, Mean (%) SD, relative value where the initial value was defined as 100% (skin surface of human; 2% aqueous solution, Immediately after Coating)	action on the water content of skin surface (moisturizing property) (skin surface of human; test sample of 2% 1,5-AG, human volunteers)	Water Content of Skin Surface, Mean (%) SD, relative value where the initial value was defined as 100% (skin surface of human; 1% aqueous solution, After 15 min) [%]	Water Content of Skin Surface, Mean (%) SD, relative value where the initial value was defined as 100% (skin surface of human; 1% aqueous solution, After 30 min) [%]	Water Content of Skin Surface, Mean (%) SD, relative value where the initial value was defined as 100% (skin surface of human; 1% aqueous solution, After 45 min) [%]	Water Content of Skin Surface, Mean (%) SD, relative value where the initial value was defined as 100% (skin surface of human; 1% aqueous solution, Immediately after Coating)
OC[C@H]1OC[C@H](O)[C@@H](O)[C@@H]1O [1,5-AG, 1,5-anhydro-D-glucitol]	7.81 ± 0.60	8.28 ± 0.50	8.31 ± 0.49	significantly increased	154.2 ± 12.3	180.3 ± 36.2	176.7 ± 15.8	2,535.4 ± 749.6%	action of increasing the water content of skin surface				
Sodium Hyaluronate [reference compound]										122.6 ± 15.7	116.9 ± 23.7	130.1 ± 10.3	3,101.8 ± 1,716.3%
